Measurements as given in US11884649B2, “IRE1α inhibitors and uses thereof” (The Regents of the University of California, priority 2020, dated 2024).

Columns and labels:
[1] = target: T1, IRE1α (Mus musculus, UniProt Q9EQY0); experiment: IRE1α autophosphorylation by Phos-tag SDS-PAGE in INS-1 cells expressing IRE1α under Dox control; type: cell-based, rat; settings: various concentrations, 5 ng/mL Dox
T1 construct: expressed in transfected cells
Protocol: We next tested PAIR1 and KIRA9 in an INS-1 rat insulinoma stable cell line where IRE1α activation can be achieved through conditional overexpression of a mouse IRE1α transgene (Han et al., 2009).
Treatment Conditions for Phostag Gels
INS-1 or IRE1α-overexpressing isogenic INS-1 cells were plated onto a 24-well Poly-D-Lysine coated tissue culture plate and grown for 48 hrs. Inhibitor or DMSO were added to the media and incubated for 1 hour at 37° C. with 5% CO2 prior to addition of ER stress agents. […] Cells were lysed directly into SDS loading buffer (50 mM Tris, 100 mM DTT, 2% SDS (w/v), 10% glycerol (v/v), and 0.1% bromophenol blue (w/v), pH 6.8) and boiled for five minutes prior to gel loading.
Phostag Acrylamide Gel Procedure
A phostag acrylamide gel recipe used to resolve phosphorylation of IRE1α has been previously established and this recipe was followed verbatim for this study.^91 Resolving gels were allowed to solidify (˜1.5 hr) before adding the stacking gel and comb and allowed to solidify (˜1 hr). Gels were run using Tris-Glycine-SDS running buffer (25 mM Tris, 192 mM glycine, 0.1% SDS, pH 8.3) at 100 V for 3-3.5 hours. After the gels have ran, they were transferred onto nitrocellulose paper via rapid transfer using a Transblot Turbo and premade transfer packs. Gels were transferred at 25 V, 2.5 A for 15 minutes. […]

[2] = tested on: INS-1 cells expressing IRE1α under Dox control; experiment: Apoptosis in IRE1α-overexpressing INS-1 cells (cleaved caspase 3 immunoblot, Annexin V staining); type: cell-based, rat; settings: 20 μM, 5 ng/mL Dox
Protocol: Western Blotting and Antibodies
For protein analysis, cells were lysed into modified RIPA buffer (50 mM Tris, 150 mM NaCl, 10 mM NaF, 1% NP40 (v/v), 0.25% sodium deoxycholate (w/v), 5% glycerol (v/v), pH 7.8) containing protease inhibitor (Pierce Protease Inhibitor Tablets and 1 mM PMSF) and phosphatase inhibitor (Phosphatase inhibitor cocktail 2 and 3, Sigma Aldrich) prior to gel loading. Western blots were performed using Any kD™ Mini-PROTEAN® TGX™ Precast protein gels (BioRad). Gels were ran using Tris-Glycine running buffer (25 mM Tris pH 8.6, 192 mM glycine, 0.1% SDS (w/v)) at 180 V. Gels were transferred to nitrocellulose paper using the TransBlot Turbo System (BioRad) at 25 V, 2.5 A for 15 minutes. Nitrocellulose blots were blocked for 30 minutes at room temperature with Odyssey blocking buffer (Li-Cor). Primary antibodies were diluted into blocking buffer and incubated over night at 4° C. Blots were washed 2× with TBST (20 mM Tris pH 7.5, 150 mM NaCl, 0.1% Tween-20) and incubated with near-infrared-dye-conjugated secondary antibodies (Li-Cor) for 1 hour at room temperature. Blots were imaged using a Li-Cor Odyssey IR Imager and quantitated using ImageStudio. The following primary antibodies were used in this study: rabbit anti-IRE1α mAb #14C10 (Cell Signaling, no. 3294), mouse anti-FLAG (DYKDDDDK (SEQ ID NO:24) mAb (Sigma Aldrich, no. F3165), rabbit anti-spliced XBP1 (Cell Signaling, no. 12782), rabbit anti-caspase 3 (Cell Signaling, no. 9662), rabbit anti-cleaved caspase 3 (Cell Signaling, no. 9661), mouse anti-proinsulin (Santa Cruz Biotechnology, no. sc-9168), and rabbit anti-GAPDH (Santa Cruz Biotechnology, no. sc-25778).
For assaying apoptosis by Annexin V staining, cells were plated in 12-well plates overnight. Cells were then treated with various reagents for indicated time periods. On the day of flow cytometry analysis, cells were trypsinized and washed in PBS and resuspended in Annexin V binding buffer with Annexin-V FITC (BD Pharmingen™). Flow cytometry was performed on a Becton Dickinson LSRII flow cytometer.

[3] = tested on: mouse splenocytes; experiment: LPS-induced differentiation of mouse splenocytes into plasma cells (flow cytometry, IgM ELISA); type: cell-based; settings: 1 μg/mL LPS, three days; for IgM secretion / plasma cell (CD138+) differentiation: 20 μM-1.25 μM
Protocol: Therefore, we sought to compare the sensitivity of this process to both KIRAs and PAIRs. To this end, we assessed how KIRA8, KIRA9, and PAIR1 affected the differentiation of lipopolysaccharide (LPS)-treated mouse splenocytes into antibody-secreting plasma cells. Total live number of CD19+ B-cells were assessed and plasma cells were quantified on the basis of B220 downregulation and CD138 expression by flow cytometry (FIGS. 6A-6C, FIG. 24). Concomitantly, secreted IgM was measured in the cell culture supernatants by ELISA (FIG. 6C).
Splenocyte Isolation and Differentiation
Red blood cells were lysed with ammonium chloride potassium buffer. Splenocytes were plated at 2.5×10^5 cells/well in a 96-well round bottom plate in complete media. The splenocytes were treated with or without 1 μg/ml LPS 026:b6 (Sigma). […] The splenocytes were incubated for three days in a 37° C., 5% CO2 humidified chamber before collection and staining for flow cytometry.
Cells from the plasma cell assay were collected in a 96-well plate and washed with PBS followed by staining with LIVE/DEAD Fixable Near-IR Dead Cell Stain kit (Invitrogen). Reagent was reconstituted as per manufacturer's instructions, diluted 1:1000 in PBS, and cells were stained in 100 μL on ice for 20 minutes. The cells were then washed with FACS buffer, PBS (Corning), 2 mM EDTA and 2% heat inactivated fetal bovine serum (Omega Scientific). The cells were then stained with 50 μL antibody cocktail consisting of anti-CD19 (BioLegend), anti-CD45R (BD Pharmingen), and anti-CD138 (BioLegend) in FACS buffer on ice for 15 minutes. Cells were resuspended in FACS buffer and combined with an equal volume of 4% paraformaldehyde with 5000 Countbright Absolute Counting Beads (Thermofisher). Stained cells were analyzed on a Fortessa (Becton Dickinson). Data analysis was performed using FlowJo (v10) software (Treestar Inc.).
Media supernatants from the in vitro plasma cell differentiation assay were measured for secreted IgM by ELISA. […] Wash buffer (PBS with 0.05% Tween-20 (v/v)) was used for all washing steps and blocked with PBS-BB (PBS without Ca^2+/Mg^2+, 1% BSA (w/v), 0.05% Tween-20 (v/v)). Supernatants from LPS stimulated samples were diluted (1:100) and media only samples were diluted (1:10) in PBS-BB. […] ELISA plates were developed with TMB (Sigma) and stopped with 1N sulfuric acid. Absorbance was measured at 450 nm using spectrophotometer (Spectramax M5, Molecular Devices). Sample IgM concentration values were calculated with SoftMaxPro software.

[4] = tested on: XBP1 mRNA splicing / RIDD; experiment: XBP1 splicing and Blos1 mRNA in LPS-treated splenocytes; type: cell-based, mouse; settings: LPS treatment

T1 sequence (Q9EQY0 21-977): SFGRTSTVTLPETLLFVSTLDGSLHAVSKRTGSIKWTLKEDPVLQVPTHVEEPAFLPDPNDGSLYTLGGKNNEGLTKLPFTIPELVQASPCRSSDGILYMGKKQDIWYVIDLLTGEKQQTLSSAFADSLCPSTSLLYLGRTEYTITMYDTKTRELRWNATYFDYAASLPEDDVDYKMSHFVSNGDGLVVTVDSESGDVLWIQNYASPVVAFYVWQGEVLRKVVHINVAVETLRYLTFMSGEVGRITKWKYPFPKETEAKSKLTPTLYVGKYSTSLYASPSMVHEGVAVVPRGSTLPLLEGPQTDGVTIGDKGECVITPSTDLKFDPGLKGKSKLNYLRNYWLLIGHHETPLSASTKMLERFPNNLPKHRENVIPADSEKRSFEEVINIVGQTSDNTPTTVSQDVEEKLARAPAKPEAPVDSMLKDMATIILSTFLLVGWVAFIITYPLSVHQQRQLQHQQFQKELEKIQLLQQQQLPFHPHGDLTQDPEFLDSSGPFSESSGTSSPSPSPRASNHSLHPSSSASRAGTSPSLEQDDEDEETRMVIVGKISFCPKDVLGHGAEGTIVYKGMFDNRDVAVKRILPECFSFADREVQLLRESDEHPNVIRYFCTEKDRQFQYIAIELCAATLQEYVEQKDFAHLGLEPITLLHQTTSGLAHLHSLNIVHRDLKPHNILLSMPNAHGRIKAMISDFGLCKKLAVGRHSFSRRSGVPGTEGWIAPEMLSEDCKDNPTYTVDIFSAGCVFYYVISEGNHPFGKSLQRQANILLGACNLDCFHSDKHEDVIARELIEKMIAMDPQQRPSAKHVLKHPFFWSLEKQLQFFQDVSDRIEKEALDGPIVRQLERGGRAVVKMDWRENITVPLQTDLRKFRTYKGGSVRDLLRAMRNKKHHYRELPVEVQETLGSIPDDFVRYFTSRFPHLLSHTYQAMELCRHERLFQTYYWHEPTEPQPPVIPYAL

With `O=S(=O)(CC(F)(F)F)Nc1ccc(Oc2ncccc2-c2ccnc(N[C@H]3CCCNC3)n2)c2ccccc12` (stereo in doubt) [PAIR1, 2,2,2-trifluoro-N-(4-(3-(2-(piperidin-3-ylamino)pyrimidin-4-yl)pyridin-2-yloxy)naphthalen-1-yl)ethanesulfonamide] the IRE1α autophosphorylation [1] was “equivalently block the autophosphorylation”, the “Annexin-V positivity (mitochondrial apoptosis assay)” value [2] was “significant cytoprotective efficacy” and the “generation of cleaved caspase 3” value [2] was “markedly reduced”. For the same compound, the “overall number of B cells (CD19+), general toxicity” value [3] was “neither PAIR1 nor KIRA9 reduced the overall number of B cells”, the IgM secretion [3] was “more modest inhibition” and the “plasma cell (CD138+) differentiation” value [3] was “more modest inhibition”. The “Blos1 mRNA decay” value [4] was “significantly rescued” and the “XBP1 mRNA splicing” value [4] was “reversed with KIRA9, but not with PAIR1”.
For `O=S(=O)(CCC(F)(F)F)Nc1ccc(Oc2ncccc2-c2ccnc(NC3CCCNC3)n2)c2ccccc12` (stereo not shown) [KIRA9, 3,3,3-trifluoro-N-(4-(3-(2-(piperidin-3-ylamino)pyrimidin-4-yl)pyridin-2-yloxy)naphthalen-1-yl)propane-1-sulfonamide], the IRE1α autophosphorylation [1] was “equivalently block the autophosphorylation”, the “Annexin-V positivity (mitochondrial apoptosis assay)” value [2] was “significant cytoprotective efficacy” and the “generation of cleaved caspase 3” value [2] was “markedly reduced”. The “overall number of B cells (CD19+), general toxicity” value [3] was “neither PAIR1 nor KIRA9 reduced the overall number of B cells”, the IgM secretion [3] was “reductions in both plasma cell differentiation and IgM secretion in a dose-dependent manner” and the “plasma cell (CD138+) differentiation” value [3] was “reductions in both plasma cell differentiation and IgM secretion in a dose-dependent manner”. The “Blos1 mRNA decay” value [4] was “significantly rescued” and the “XBP1 mRNA splicing” value [4] was “reversed”.
